Laboratory results as given in patent publication EP4707277A1, “NOVEL HETEROCYCLIC AMINE DERIVATIVES AND PHARMACEUTICAL COMPOSITION COMPRISING SAME” (Daewoong Pharmaceutical Co., Ltd., priority 2023, dated 2024).
Read-outs that look alike come from different tables or passages of the source.

Experiments:
BTK = molecular target: T1, BTK (Homo sapiens, UniProt Q06187); assay: Inhibitory activity against BTK, ADP-Glo Kinase system (Promega); assay type: biochemical
T1 construct: purchased Signalchem B10-10H
T1 sequence (Q06187 whole entry): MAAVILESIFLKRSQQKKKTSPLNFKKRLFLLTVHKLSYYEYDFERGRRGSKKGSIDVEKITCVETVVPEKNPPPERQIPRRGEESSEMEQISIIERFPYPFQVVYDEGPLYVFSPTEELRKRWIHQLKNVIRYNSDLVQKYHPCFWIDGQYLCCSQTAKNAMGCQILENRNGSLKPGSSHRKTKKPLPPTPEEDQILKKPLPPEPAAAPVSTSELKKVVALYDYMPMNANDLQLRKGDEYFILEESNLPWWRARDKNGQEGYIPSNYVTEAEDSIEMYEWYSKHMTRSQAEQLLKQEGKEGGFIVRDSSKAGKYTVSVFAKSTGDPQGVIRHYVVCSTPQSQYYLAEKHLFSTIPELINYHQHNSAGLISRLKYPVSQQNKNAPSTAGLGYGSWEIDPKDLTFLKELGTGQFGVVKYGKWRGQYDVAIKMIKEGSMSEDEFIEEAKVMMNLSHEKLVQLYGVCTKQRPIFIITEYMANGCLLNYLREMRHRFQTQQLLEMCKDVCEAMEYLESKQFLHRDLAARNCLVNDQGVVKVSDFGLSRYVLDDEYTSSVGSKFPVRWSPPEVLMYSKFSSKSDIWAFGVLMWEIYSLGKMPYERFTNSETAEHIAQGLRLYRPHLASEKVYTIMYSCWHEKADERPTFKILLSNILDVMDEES
Experimental: (§1) Inhibitory activities against BTK and ITK were measured for the compounds prepared in the above Examples as follows.
(§2) The inhibitory activities against BTK and ITK were evaluated using 'ADP-Glo™ Kinase system' (Promega Corporation). In the case of this evaluation method, activation was measured by quantifying the amount of ADP produced during the kinase reaction, which was utilized to measure the inhibitory activities against BTK and ITK.
(§3) Specifically, the inhibitory activities against BTK and ITK were measured using BTK kinase (Signalchem, B10-10H), ITK kinase (Signalchem, I13-11G-10), and ADP-Glo kinase assay kit (Promega, V9102). Recombinant purified human BTK and ITK were diluted with 1 x kinase reaction buffer (40 mM Tris-Cl, pH 7.5, 20 mM MgCl2, 0.1 mg/mL BSA, 2 mM MnCl2 and 50 uM DTT) and added to a 96 well plate (ITK: final concentration of 4 ng per reaction/BTK: final concentration of 10 ng per reaction). The compounds prepared in the previous Examples were treated so as to be finally a 1% DMSO aqueous solution, and a substrate cocktail containing ATP (1mM or Km ATP (BTK: 10 uM /ITK: 25uM)) and 0.2 ug/ul of Poly (Glu4,Tyr1) peptide (BTK and ITK final concentration) in the total 25 uL reactants was added to a 96-well plate to initiate enzymatic reaction. After incubation (30°C) for 1 hour, equivalent volume (25 uL per reaction) of ADP Glo was added, and incubated (30°C) for 40 minutes at room temperature. Then, a kinase detection reagent (45 uL per reaction) was added, and incubated (30°C) for 30 minutes at room temperature. The kinase activity was measured by chemiluminescence according to the instructions of ADP Glo kinase assay kit, and the inhibitory activity of the compounds according to the present disclosure was calculated. For the analysis of the results of each compound, Microsoft Excel was used, and IC50 values were calculated by GraphPad Prism software.

ITK = molecular target: T2, ITK (Homo sapiens, UniProt Q08881); assay: Inhibitory activity against ITK, ADP-Glo Kinase system (Promega); assay type: biochemical
T2 construct: purchased Signalchem I13-11G-10
T2 sequence (Q08881 1-620): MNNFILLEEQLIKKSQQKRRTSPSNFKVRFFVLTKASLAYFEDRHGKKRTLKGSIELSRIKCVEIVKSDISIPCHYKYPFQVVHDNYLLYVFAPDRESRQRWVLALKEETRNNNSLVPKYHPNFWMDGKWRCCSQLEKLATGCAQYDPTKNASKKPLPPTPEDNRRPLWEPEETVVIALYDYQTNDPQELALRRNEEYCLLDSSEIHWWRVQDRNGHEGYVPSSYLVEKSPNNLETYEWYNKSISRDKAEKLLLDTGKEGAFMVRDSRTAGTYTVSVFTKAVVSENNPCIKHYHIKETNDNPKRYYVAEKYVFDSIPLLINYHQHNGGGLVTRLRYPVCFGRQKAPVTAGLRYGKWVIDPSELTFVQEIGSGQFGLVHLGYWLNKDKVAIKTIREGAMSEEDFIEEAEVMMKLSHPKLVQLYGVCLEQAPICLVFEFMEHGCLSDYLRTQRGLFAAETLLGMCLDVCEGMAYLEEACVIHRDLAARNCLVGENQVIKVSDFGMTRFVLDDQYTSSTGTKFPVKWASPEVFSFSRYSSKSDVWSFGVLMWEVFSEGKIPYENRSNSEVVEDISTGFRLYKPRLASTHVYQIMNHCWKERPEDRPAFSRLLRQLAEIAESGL
Experimental: as §1, §2, §3

[1] = 1mM ATP, read-out: BTK IC50(nM) 1mM ATP
[2] = 1mM ATP, read-out: ITK IC50(nM) 1mM ATP
[3] = Km ATP (BTK: 10 uM), read-out: BTK IC50(nM) Km ATP
[4] = Km ATP (ITK: 25uM), read-out: ITK IC50(nM) Km ATP

| SMILES | IC50 (BTK; [1]) | IC50 (ITK; [2]) | IC50 (BTK; [3]) | IC50 (ITK; [4]) |
| --- | --- | --- | --- | --- |
| C=CC(=O)N1CC=C(c2nc(Nc3cc(F)ccn3)cc3c2ccn3C(C)C)CC1 [Example 47, 1-(4-(6-((4-fluoropyridin-2-yl)amino)-1-isopropyl-1H-pyrrolo[3,2-c]pyridin-4-yl)-3,6-dihydropyridin-1(2H)-yl)prop-2-en-1-one] | ≤ 20 nM | 20 to 100 nM |  |  |
| C=CC(=O)N1C[C@@H](Oc2nc(Nc3ncc(C)s3)cc3c2ccn3C(C)C)C[C@@H]1C [Example 88, 1-((2S,4S)-4-((1-isopropyl-6-((5-methylthiazol-2-yl)amino)-1H-pyrrolo[3,2-c]pyridin-4-yl)oxy)-2-methylpyrrolidin-1-yl)prop-2-en-1-one] | ≤ 20 nM | ≤ 20 nM |  |  |
| C=CC(=O)N1C[C@@H](F)[C@H](Oc2nc(Nc3ncc(C)s3)cc3c2ccn3CCC(C)C)C1 [Example 115, 1-((3R,4R)-3-fluoro-4-((1-isopentyl-6-((5-methylthiazol-2-yl)amino)-1H-pyrrolo[3,2-c]pyridin-4-yl)oxy)pyrrolidin-1-yl)prop-2-en-1-one] |  |  | ≤ 20 nM | ≤ 20 nM |
| C=CC(=O)N1CCC[C@H]1COc1nc(Nc2ncc(C)s2)cc2c1ccn2CC(C)C [Example 85, (S)-1-(2-(((1-isobutyl-6-((5-methylthiazol-2-yl)amino)-1H-pyrrolo[3,2-c]pyridin-4-yl)oxy)methyl)pyrrolidin-1-yl)prop-2-en-1-one] | 20 to 100 nM | > 500 nM |  |  |
| C=CC(=O)N1C[C@@H](Oc2nc(Nc3ncc(C)s3)cc3c2ccn3C2CCCC2)C[C@H]1C [Example 100, 1-((2R,4S)-4-((1-cyclopentyl-6-((5-methylthiazol-2-yl)amino)-1H-pyrrolo[3,2-c]pyridin-4-yl)oxy)-2-methylpyrrolidin-1-yl)prop-2-en-1-one] | ≤ 20 nM | ≤ 20 nM |  |  |
| C=CC(=O)N1CC=C(c2nc(Nc3ncc(C)s3)cc3c2ccn3CC2CCCCC2)CC1 [Example 9, 1-(4-(1-(cyclohexylmethyl)-6-((5-methylthiazol-2-yl)amino)-1H-pyrrolo[3,2-c]pyridin-4-yl)-3,6-dihydropyridin-1(2H)-yl)prop-2-en-1-one] |  |  | ≤ 20 nM | ≤ 20 nM |
| C=CC(=O)N1C[C@@H](Oc2nc(Nc3ncc(C)s3)cc3c2ccn3C(C)C)C[C@H]1C [Example 87, 1-((2R,4S)-4-((1-isopropyl-6-((5-methylthiazol-2-yl)amino)-1H-pyrrolo[3,2-c]pyridin-4-yl)oxy)-2-methylpyrrolidin-1-yl)prop-2-en-1-one] | ≤ 20 nM | ≤ 20 nM |  |  |
| C=CC(=O)N1CC=C(c2nc(Nc3cc(C)ncn3)cc3c2ccn3C(C)C)CC1 [Example 44, 1-(4-(1-isopropyl-6-((6-methylpyrimidin-4-yl)amino)-1H-pyrrolo[3,2-c]pyridin-4-yl)-3,6-dihydropyridin-1(2H)-yl)prop-2-en-1-one] | 20 to 100 nM | 100 to 500 nM |  |  |
| C=CC(=O)N1C2C=C(c3nc(Nc4ncc(C)s4)cc4c3ccn4C(C)C)CC1COC2 (stereo not drawn) [Example 27, 1-(7-(1-isopropyl-6-((5-methylthiazol-2-yl)amino)-1H-pyrrolo[3,2-c]pyridin-4-yl)-3-oxa-9-azabicyclo[3.3.1]non-6-en-9-yl)prop-2-en-1-one] |  |  | ≤ 20 nM | ≤ 20 nM |
| C=CC(=O)N1CC=C(c2nc(Nc3ncc(C)s3)cc3c2ccn3CC2CCOC2)CC1 (stereo not drawn) [Example 8, 1-(4-(6-((5-methylthiazol-2-yl)amino)-1-((tetrahydrofuran-3-yl)methyl)-1H-pyrrolo[3,2-c]pyridin-4-yl)-3,6-dihydropyridin-1(2H)-yl)prop-2-en-1-one] |  |  | ≤ 20 nM | ≤ 20 nM |
| C=CC(=O)N1C[C@@H](F)[C@H](Oc2nc(Nc3ncc(C)s3)cc3c2ccn3CC2CC2)C1 [Example 108, 1-((3R,4R)-3-((1-(cyclopropylmethyl)-6-((5-methylthiazol-2-yl)amino)-1H-pyrrolo[3,2-c]pyridin-4-yl)oxy)-4-fluoropyrrolidin-1-yl)prop-2-en-1-one] | ≤ 20 nM | ≤ 20 nM |  |  |

Continued, values first:

| IC50 (BTK; [1]) | IC50 (ITK; [2]) | IC50 (BTK; [3]) | IC50 (ITK; [4]) | SMILES |
| --- | --- | --- | --- | --- |
|  |  | ≤ 20 nM | ≤ 20 nM | C=CC(=O)N1CC[C@H](Oc2nc(Nc3ncc(C)s3)cc3c2ccn3Cc2ccccc2)C1 [Example 121, (S)-1-(3-((1-benzyl-6-((5-methylthiazol-2-yl)amino)-1H-pyrrolo[3,2-c]pyridin-4-yl)oxy)pyrrolidin-1-yl)prop-2-en-1-one] |
| ≤ 20 nM | 100 to 500 nM |  |  | C=CC(=O)N1CCC[C@H](COc2nc(Nc3ncc(C)s3)cc3c2ccn3CC(C)C)C1 [Example 215, (S)-1-(3-(((1-isobutyl-6-((5-methylthiazol-2-yl)amino)-1H-pyrrolo[3,2-c]pyridin-4-yl)oxy)methyl)piperidin-1-yl)prop-2-en-1-one] |
| ≤ 20 nM | ≤ 20 nM |  |  | C=CC(=O)N1C[C@@H](Oc2nc(Nc3ncc(C)s3)cc3c2ccn3CCC)C[C@@H]1C [Example 187, 1-((2S,4S)-2-methyl-4-((6-((5-methylthiazol-2-yl)amino)-1-propyl-1H-pyrrolo[3,2-c]pyridin-4-yl)oxy)pyrrolidin-1-yl)prop-2-en-1-one] |
| ≤ 20 nM | ≤ 20 nM |  |  | C=CC(=O)N1C[C@H](F)[C@H](Oc2nc(Nc3ncc(C)s3)cc3c2ccn3CC)C1 [Example 152, 1-((3R,4S)-3-((1-ethyl-6-((5-methylthiazol-2-yl)amino)-1H-pyrrolo[3,2-c]pyridin-4-yl)oxy)-4-fluoropyrrolidin-1-yl)prop-2-en-1-one] |
|  |  | ≤ 20 nM | ≤ 20 nM | C=CC(=O)N1CC[C@H](Oc2nc(Nc3ncc(CC)s3)cc3c2ccn3CC(C)C)C1 [Example 122, (S)-1-(3-((6-((5-ethylthiazol-2-yl)amino)-1-isobutyl-1H-pyrrolo[3,2-c]pyridin-4-yl)oxy)pyrrolidin-1-yl)prop-2-en-1-one] |
| ≤ 20 nM | ≤ 20 nM |  |  | C=CC(=O)N1C[C@@H](F)[C@H](Oc2nc(Nc3ncc(C)s3)cc3c2ccn3CCC)C1 [Example 161, 1-((3R,4R)-3-fluoro-4-((6-((5-methylthiazol-2-yl)amino)-1-propyl-1H-pyrrolo[3,2-c]pyridin-4-yl)oxy)pyrrolidin-1-yl)prop-2-en-1-one] |
| ≤ 20 nM | ≤ 20 nM |  |  | C=CC(=O)N1C[C@@H](Oc2nc(Nc3ncc(C)s3)cc3c2ccn3CC(F)(F)F)C[C@H]1C [Example 212, 1-((2R,4S)-2-methyl-4-((6-((5-methylthiazol-2-yl)amino)-1-(2,2,2-trifluoroethyl)-1H-pyrrolo[3,2-c]pyridin-4-yl)oxy)pyrrolidin-1-yl)prop-2-en-1-one] |
| ≤ 20 nM | ≤ 20 nM |  |  | C=CC(=O)N1C[C@@H](Oc2nc(Nc3ncc(C)s3)cc3c2ccn3CC2CC2)C[C@@H]1C [Example 180, 1-((2S,4S)-4-((1-(cyclopropylmethyl)-6-((5-methylthiazol-2-yl)amino)-1H-pyrrolo[3,2-c]pyridin-4-yl)oxy)-2-methylpyrrolidin-1-yl)prop-2-en-1-one] |
| ≤ 20 nM | ≤ 20 nM |  |  | C=CC(=O)N1CC[C@H](Oc2nc(Nc3ncc(C)s3)cc3c2ccn3CC(F)F)C1 [Example 206, (S)-1-(3-((1-(2,2-difluoroethyl)-6-((5-methylthiazol-2-yl)amino)-1H-pyrrolo[3,2-c]pyridin-4-yl)oxy)pyrrolidin-1-yl)prop-2-en-1-one] |
| ≤ 20 nM | ≤ 20 nM |  |  | C#CC(=O)N1CC[C@H](Oc2nc(Nc3ncc(C)s3)cc3c2ccn3CC(C)C)C1 [Example 225, (S)-1-(3-((1-isobutyl-6-((5-methylthiazol-2-yl)amino)-1H-pyrrolo[3,2-c]pyridin-4-yl)oxy)pyrrolidin-1-yl)prop-2-yn-1-one] |
